Source: US20150203807A1, “INACTIVATION OF A […] USING A FATTY ACID” (NOVOZYMES A/S, priority 2012, published 2015)

System: Trichoderma reesei microbial host cells
Experiment: Inactivation of the microbial host cells in fermentation broth (growth on agar plates)
Type: cell-based
Conditions: hexanoic acid at 0.09%, 0.28%, 0.46%, 0.65% (w/w) in fermentation broth; pH 4.5; 24 hrs constant stirring at room temperature; samples incubated for 4 days at 30 degrees Celsius
Protocol: The fatty acid is added to the fermentation broth at various concentrations (0.09% (w/w); 0.28% (w/w); 0.46% (w/w); 0.65% (w/w)).
pH is adjusted to 4.5 using an aqueous solution of acetic acid (CAS 64-19-7) and/or aqueous sodium hydroxide (CAS 1310-73-2).
The fermentation broth with the various concentrations of the fatty acid is left at pH 4.5 for 24 hrs with constant stirring at room temperature.
The fermentation broth is tested after 24 hrs and inactivation of the microbial host cells is successful if there is no growth on agar plates—samples are incubated for 4 days at 30 degrees Celsius.
Hexanoic acid (100% sol., CAS 142-62-1) was added to the fermentation broth at various concentrations (0.09% (w/w); 0.28% (w/w); 0.46% (w/w); 0.65% (w/w)).
pH was adjusted to 4.5 using an aqueous solution of acetic acid (CAS 64-19-7) and/or aqueous sodium hydroxide (CAS 1310-73-2).
The fermentation broth with the various concentrations of hexanoic acid was left at pH 4.5 for 24 hrs with constant stirring at room temperature.
After 24 hrs the Trichoderma reesei microbial host cells were inactivated (no growth on agar plates—samples were incubated for 4 days at 30 degrees Celsius).

SMILES: CCCCCC(=O)O [Hexanoic acid]
- inactivation of Trichoderma reesei microbial host cells (no growth on agar plates): inactivated
